Measured values published in ChEMBL document CHEMBL3885881, “DrugMatrix”.

Species: Rattus norvegicus
Experiment: DrugMatrix - Regimen: Daily Repeat
Assay type: toxicity, organism-based, Sprague-Dawley
Parameters: regimen Daily Repeat, gender Male, age 6-8 weeks
Settings: in vivo, po, route oral GAVAGE, vehicle 100 % SALINE; for ALBUMIN / ALKALINE PHOSPHATASE / ASPARTATE AMINOTRANSFERASE / BLOOD UREA NITROGEN / CARBON DIOXIDE / CHLORIDE / CHOLESTEROL / CREATINE PHOSPHOKINASE / CREATININE / GLUCOSE / LACTATE DEHYDROGENASE / LIPASE / PHOSPHORUS / SODIUM / TOTAL BILIRUBIN / TOTAL PROTEIN / ALANINE AMINOTRANSFERASE: tissue Plasma; for ABSOLUTE BASOPHIL / ABSOLUTE EOSINOPHIL / ABSOLUTE LYMPHOCYTE / ABSOLUTE MONOCYTE / ABSOLUTE SEGMENTED NEUTROPHIL / BASOPHIL / EOSINOPHIL / ERYTHROCYTE COUNT / HEMATOCRIT / HEMOGLOBIN / LEUKOCYTE COUNT / LYMPHOCYTE / MEAN CORPUSCULAR HEMOGLOBIN / MEAN CORPUSCULAR HEMOGLOBIN CONCENTRATION / MONOCYTE / NEUTROPHIL / NUCLEATED RED BLOOD CELLS / PLATELET COUNT: tissue Blood
[1] = 700 mg/kg, 72 h, dose level Low, time 3 day
[2] = 700 mg/kg, […], dose level Low, time 7 day
[3] = 1400 mg/kg, 72 h, dose level High, time 3 day
[4] = 1400 mg/kg, 120 h, dose level High, time 5 day
[5] = 2100 mg/kg, 72 h, dose level High, time 3 day
[6] = 2100 mg/kg, […], dose level High, time 7 day

CN(C)C=O [DIMETHYLFORMAMIDE]
ALBUMIN [1]: 3.93 G/DL
ALKALINE PHOSPHATASE [1]: 282 u/L
ASPARTATE AMINOTRANSFERASE [1]: 140.33 u/L
BLOOD UREA NITROGEN [1]: 11.33 mg/dL
CARBON DIOXIDE [1]: 29.33 mmol/L
CHLORIDE [1]: 98.33 MEQ/L
CHOLESTEROL [1]: 93.83 mg/dL
CREATINE PHOSPHOKINASE [1]: 256.33 u/L
CREATININE [1]: 0.18 mg/dL
GLUCOSE [1]: 142 mg/dL
LACTATE DEHYDROGENASE [1]: 131.83 u/L
LIPASE [1]: 10.17 u/L
PHOSPHORUS [1]: 10.13 mg/dL
SODIUM [1]: 143.05 MEQ/L
TOTAL BILIRUBIN [1]: 0.2 mg/dL
TOTAL PROTEIN [1]: 5.9 G/DL
ABSOLUTE BASOPHIL [2]: 0 CELLS/uL
ABSOLUTE EOSINOPHIL [2]: 0 CELLS/uL
ABSOLUTE LYMPHOCYTE [2]: 8451.4 CELLS/uL
ABSOLUTE MONOCYTE [2]: 140.6 CELLS/uL
ABSOLUTE SEGMENTED NEUTROPHIL [2]: 648 CELLS/uL
BASOPHIL [2]: 0%
EOSINOPHIL [2]: 0%
ERYTHROCYTE COUNT [2]: 5.61 x10E6/uL
HEMATOCRIT [2]: 35.36%
HEMOGLOBIN [2]: 14.32 G/DL
LEUKOCYTE COUNT [2]: 9.24 x10E3/uL
LYMPHOCYTE [2]: 91%
MEAN CORPUSCULAR HEMOGLOBIN [2]: 25.62 pg
MEAN CORPUSCULAR HEMOGLOBIN CONCENTRATION [2]: 40.5 G/DL
MONOCYTE [2]: 1.6%
NEUTROPHIL [2]: 7.4%
NUCLEATED RED BLOOD CELLS [2]: 0 /100WBC
PLATELET COUNT [2]: 1220.6 x10E3/uL
ALANINE AMINOTRANSFERASE [2]: 100.4 u/L
ALBUMIN [2]: 4.46 G/DL
ALKALINE PHOSPHATASE [2]: 218 u/L
ASPARTATE AMINOTRANSFERASE [2]: 142.4 u/L
BLOOD UREA NITROGEN [2]: 16.4 mg/dL
CARBON DIOXIDE [2]: 30 mmol/L
CHLORIDE [2]: 98.6 MEQ/L
CHOLESTEROL [2]: 102 mg/dL
CREATINE PHOSPHOKINASE [2]: 220.4 u/L
CREATININE [2]: 0.23 mg/dL
GLUCOSE [2]: 122.8 mg/dL
LACTATE DEHYDROGENASE [2]: 232.2 u/L
LIPASE [2]: 11 u/L
PHOSPHORUS [2]: 12.18 mg/dL
SODIUM [2]: 145.44 MEQ/L
TOTAL BILIRUBIN [2]: 0.2 mg/dL
TOTAL PROTEIN [2]: 6.06 G/DL
ABSOLUTE BASOPHIL [3]: 0 CELLS/uL
ABSOLUTE EOSINOPHIL [3]: 0 CELLS/uL
ABSOLUTE LYMPHOCYTE [3]: 16367 CELLS/uL
ABSOLUTE MONOCYTE [3]: 177 CELLS/uL
ABSOLUTE SEGMENTED NEUTROPHIL [3]: 1156 CELLS/uL
BASOPHIL [3]: 0%
EOSINOPHIL [3]: 0%
ERYTHROCYTE COUNT [3]: 6.79 x10E6/uL
HEMATOCRIT [3]: 42.9%
HEMOGLOBIN [3]: 16.15 G/DL
LEUKOCYTE COUNT [3]: 17.7 x10E3/uL
LYMPHOCYTE [3]: 92.5%
MEAN CORPUSCULAR HEMOGLOBIN [3]: 23.8 pg
MEAN CORPUSCULAR HEMOGLOBIN CONCENTRATION [3]: 37.65 G/DL
MONOCYTE [3]: 1%
NEUTROPHIL [3]: 6.5%
NUCLEATED RED BLOOD CELLS [3]: 0 /100WBC
PLATELET COUNT [3]: 447 x10E3/uL
ALANINE AMINOTRANSFERASE [3]: 1328 u/L
ALBUMIN [3]: 4.1 G/DL
ALKALINE PHOSPHATASE [3]: 424 u/L
ASPARTATE AMINOTRANSFERASE [3]: 1614.5 u/L
BLOOD UREA NITROGEN [3]: 20 mg/dL
CARBON DIOXIDE [3]: 33 mmol/L
CHLORIDE [3]: 99.5 MEQ/L
CHOLESTEROL [3]: 70.5 mg/dL
CREATINE PHOSPHOKINASE [3]: 326.5 u/L
CREATININE [3]: 0.47 mg/dL
GLUCOSE [3]: 210.5 mg/dL
LACTATE DEHYDROGENASE [3]: 461 u/L
LIPASE [3]: 11 u/L
PHOSPHORUS [3]: 9 mg/dL
SODIUM [3]: 148.05 MEQ/L
TOTAL BILIRUBIN [3]: 0.35 mg/dL
TOTAL PROTEIN [3]: 5.8 G/DL
ABSOLUTE BASOPHIL [4]: 0 CELLS/uL
ABSOLUTE EOSINOPHIL [4]: 0 CELLS/uL
ABSOLUTE LYMPHOCYTE [4]: 7335 CELLS/uL
ABSOLUTE MONOCYTE [4]: 49.5 CELLS/uL
ABSOLUTE SEGMENTED NEUTROPHIL [4]: 565.5 CELLS/uL
BASOPHIL [4]: 0%
EOSINOPHIL [4]: 0%
ERYTHROCYTE COUNT [4]: 7.28 x10E6/uL
HEMATOCRIT [4]: 45.7%
HEMOGLOBIN [4]: 16.7 G/DL
LEUKOCYTE COUNT [4]: 7.95 x10E3/uL
LYMPHOCYTE [4]: 93%
MEAN CORPUSCULAR HEMOGLOBIN [4]: 22.95 pg
MEAN CORPUSCULAR HEMOGLOBIN CONCENTRATION [4]: 36.55 G/DL
MONOCYTE [4]: 0.5%
NEUTROPHIL [4]: 6.5%
NUCLEATED RED BLOOD CELLS [4]: 0 /100WBC
PLATELET COUNT [4]: 998 x10E3/uL
ALANINE AMINOTRANSFERASE [4]: 5117.67 u/L
ALBUMIN [4]: 4.53 G/DL
ALKALINE PHOSPHATASE [4]: 286.67 u/L
ASPARTATE AMINOTRANSFERASE [4]: 8354 u/L
BLOOD UREA NITROGEN [4]: 21 mg/dL
CARBON DIOXIDE [4]: 35 mmol/L
CHLORIDE [4]: 92 MEQ/L
CHOLESTEROL [4]: 136 mg/dL
CREATINE PHOSPHOKINASE [4]: 493.33 u/L
CREATININE [4]: 0.36 mg/dL
GLUCOSE [4]: 145 mg/dL
LACTATE DEHYDROGENASE [4]: 42966.33 u/L
LIPASE [4]: 12.33 u/L
PHOSPHORUS [4]: 13.03 mg/dL
SODIUM [4]: 146.2 MEQ/L
TOTAL BILIRUBIN [4]: 0.5 mg/dL
TOTAL PROTEIN [4]: 7.33 G/DL
ABSOLUTE BASOPHIL [5]: 0 CELLS/uL
ABSOLUTE EOSINOPHIL [5]: 16 CELLS/uL
ABSOLUTE LYMPHOCYTE [5]: 6718 CELLS/uL
ABSOLUTE MONOCYTE [5]: 23.33 CELLS/uL
ABSOLUTE SEGMENTED NEUTROPHIL [5]: 509.33 CELLS/uL
BASOPHIL [5]: 0%
EOSINOPHIL [5]: 0.17%
ERYTHROCYTE COUNT [5]: 5.8 x10E6/uL
HEMATOCRIT [5]: 38.27%
HEMOGLOBIN [5]: 13.57 G/DL
LEUKOCYTE COUNT [5]: 7.27 x10E3/uL
LYMPHOCYTE [5]: 92.5%
MEAN CORPUSCULAR HEMOGLOBIN [5]: 23.42 pg
MEAN CORPUSCULAR HEMOGLOBIN CONCENTRATION [5]: 35.45 G/DL
MONOCYTE [5]: 0.33%
NEUTROPHIL [5]: 7%
NUCLEATED RED BLOOD CELLS [5]: 0 /100WBC
PLATELET COUNT [5]: 1059 x10E3/uL
ALANINE AMINOTRANSFERASE [5]: 105.67 u/L
ALBUMIN [5]: 4.47 G/DL
ALKALINE PHOSPHATASE [5]: 224.5 u/L
ASPARTATE AMINOTRANSFERASE [5]: 117.33 u/L
BLOOD UREA NITROGEN [5]: 14.5 mg/dL
CARBON DIOXIDE [5]: 31.33 mmol/L
CHLORIDE [5]: 100.17 MEQ/L
CHOLESTEROL [5]: 99.33 mg/dL
CREATINE PHOSPHOKINASE [5]: 191 u/L
CREATININE [5]: 0.22 mg/dL
GLUCOSE [5]: 143.67 mg/dL
LACTATE DEHYDROGENASE [5]: 109.83 u/L
LIPASE [5]: 10.33 u/L
PHOSPHORUS [5]: 9.67 mg/dL
SODIUM [5]: 146.58 MEQ/L
TOTAL BILIRUBIN [5]: 0.17 mg/dL
TOTAL PROTEIN [5]: 6.25 G/DL
ABSOLUTE BASOPHIL [6]: 0 CELLS/uL
ABSOLUTE EOSINOPHIL [6]: 0 CELLS/uL
ABSOLUTE LYMPHOCYTE [6]: 6108.5 CELLS/uL
ABSOLUTE MONOCYTE [6]: 208.75 CELLS/uL
ABSOLUTE SEGMENTED NEUTROPHIL [6]: 1557.75 CELLS/uL
BASOPHIL [6]: 0%
EOSINOPHIL [6]: 0%
ERYTHROCYTE COUNT [6]: 6.06 x10E6/uL
HEMATOCRIT [6]: 37.55%
HEMOGLOBIN [6]: 14.95 G/DL
LEUKOCYTE COUNT [6]: 7.88 x10E3/uL
LYMPHOCYTE [6]: 79.5%
MEAN CORPUSCULAR HEMOGLOBIN [6]: 24.67 pg
MEAN CORPUSCULAR HEMOGLOBIN CONCENTRATION [6]: 39.83 G/DL
MONOCYTE [6]: 2.5%
NEUTROPHIL [6]: 18%
NUCLEATED RED BLOOD CELLS [6]: 0 /100WBC
PLATELET COUNT [6]: 396 x10E3/uL
ALANINE AMINOTRANSFERASE [6]: 452.75 u/L
ALBUMIN [6]: 4.22 G/DL
ALKALINE PHOSPHATASE [6]: 271.25 u/L
ASPARTATE AMINOTRANSFERASE [6]: 1219.25 u/L
BLOOD UREA NITROGEN [6]: 15.25 mg/dL
CARBON DIOXIDE [6]: 29 mmol/L
CHLORIDE [6]: 103 MEQ/L
CHOLESTEROL [6]: 75.75 mg/dL
CREATINE PHOSPHOKINASE [6]: 261 u/L
CREATININE [6]: 0.25 mg/dL
GLUCOSE [6]: 147.75 mg/dL
LACTATE DEHYDROGENASE [6]: 101.25 u/L
LIPASE [6]: 10.25 u/L
PHOSPHORUS [6]: 7.55 mg/dL
SODIUM [6]: 147.12 MEQ/L
TOTAL BILIRUBIN [6]: 0.33 mg/dL
TOTAL PROTEIN [6]: 5.7 G/DL
